Measurements as given in US9045454B2, “Bicyclic pyrrole derivatives useful as agonists of GPR120” (Janssen Pharmaceutica NV, priority 2013, dated 2015).

Tested on: C57bl/6J Mice
Experiment: GPR120 C57bl6 Mouse IPGTT
Format: in vivo
Details: 30.0 mg/kg, dosed 30 minutes prior to glucose (IP 1.5 g/kg)
Method: Male, C57bl/6J Mice were ordered in at 8 weeks of age from Jackson Labs. Individual mice weighed anywhere in the range of 25-30 grams on study day. The mice were fasted, with removal of food occurring at 7 am on the morning of the study. Animals were moved into the room at 10:00 am, to give them time to acclimate. Glucose (insulin syringes) was drawn up either the night before or the morning of the study. Glucose was dosed (IP) at 1.5 g/kg at 7.5 ml/kg (20% glucose straight TEKNOVA, 250 ml sterile bottle w/ catalogue number G0525). Test compounds were kept spinning and were only drawn into the syringes prior to study commencement. Animals were bled via tail snip to determine basal glucose levels prior to dosing of treatments. An Ascensia BREEZE Blood Glucose Monitoring System by Bayer (using unique 10-test disks) was used for determining glucose levels. The bleeds started at approximately 12:45 pm and dosing started, at 1-minute intervals, immediately after. All groups were dosed 30 minutes prior to glucose administration at a dose volume of 10 ml/kg (the dose volume was calculated separately for each individual animal). Thirty minutes after the first dose animals were bled again for a second baseline, or T=0, and immediately dosed with glucose via an i.p. injection. The exact dose volume for glucose was also calculated separately for each individual animal. […]

Cc1c(CCC(=O)O)ccc(OCc2cccn2-c2ccc(Cl)cc2)c1C [Compound 1, 3-(4-{[1-(4-Chlorophenyl)-1H-pyrrol-2-yl]methoxy}-2,3-dimethylphenyl)propanoic acid]
GPR120 C57bl6 Mouse IPGTT Results: not different
